Measured values from patent publication US20250368666A1, “INDAZOLE COMPOUNDS” (TYRA BIOSCIENCES, INC., priority 2022, published 2025).
Read-outs that look alike come from different tables or passages of the source.

Columns and labels:
FGFR1 = biological target: T1, FGFR1 (Homo sapiens, UniProt P11362); assay: Kinase binding assay (kinase-tagged T7 phage, affinity beads, qPCR), Kd; conditions: read-out: FGFR1 (Kd nM)
T1 construct: made in house; host or cells: E. coli (BL21-derived), T7 phage
Method: (§1) Kinase-tagged T7 phage strains were prepared in an E. coli host derived from the BL21 strain. E. coli were grown to log-phase and infected with T7 phage and incubated with shaking at 32° C. until lysis. The lysates were centrifuged and filtered to remove cell debris. Streptavidin-coated magnetic beads were treated with biotinylated small molecule ligands for 30 minutes at room temperature to generate affinity resins for kinase assays. The liganded beads were blocked with excess biotin and washed with blocking buffer SeaBlock (Pierce), 1% BSA, 0.05% Tween 20, 1 mM DTT to remove unbound ligand and to reduce non-specific binding.
(§2) Test compounds were prepared as 111× stocks in 100% DMSO. Kds were determined using an 11-point 3-fold compound dilution series with three DMSO control points. […] The compounds were then diluted directly into the assays such that the final concentration of DMSO was 0.9%. All reactions performed in polypropylene 384-well plate. Each was a final volume of 0.02 ml. […] The kinase concentration in the eluates was measured by qPCR.
(§3) Binding constants were calculated with a standard dose-response curve using the Hill equation: […]
(§4) The Hill Slope was set to −1. Curves were fitted using a non-linear least square fit with the Levenberg-Marquardt algorithm.

FGFR3 = biological target: T2, FGFR3 (Homo sapiens, UniProt P22607); assay: as above; conditions: read-out: FGFR3 (Kd nM)
T2 construct: made in house; host or cells: E. coli (BL21-derived), T7 phage
Method: as §1, §2, §3, §4

[1] = kinase binding assay, 11-point 3-fold dilution series

T2 sequence (P22607 23-806): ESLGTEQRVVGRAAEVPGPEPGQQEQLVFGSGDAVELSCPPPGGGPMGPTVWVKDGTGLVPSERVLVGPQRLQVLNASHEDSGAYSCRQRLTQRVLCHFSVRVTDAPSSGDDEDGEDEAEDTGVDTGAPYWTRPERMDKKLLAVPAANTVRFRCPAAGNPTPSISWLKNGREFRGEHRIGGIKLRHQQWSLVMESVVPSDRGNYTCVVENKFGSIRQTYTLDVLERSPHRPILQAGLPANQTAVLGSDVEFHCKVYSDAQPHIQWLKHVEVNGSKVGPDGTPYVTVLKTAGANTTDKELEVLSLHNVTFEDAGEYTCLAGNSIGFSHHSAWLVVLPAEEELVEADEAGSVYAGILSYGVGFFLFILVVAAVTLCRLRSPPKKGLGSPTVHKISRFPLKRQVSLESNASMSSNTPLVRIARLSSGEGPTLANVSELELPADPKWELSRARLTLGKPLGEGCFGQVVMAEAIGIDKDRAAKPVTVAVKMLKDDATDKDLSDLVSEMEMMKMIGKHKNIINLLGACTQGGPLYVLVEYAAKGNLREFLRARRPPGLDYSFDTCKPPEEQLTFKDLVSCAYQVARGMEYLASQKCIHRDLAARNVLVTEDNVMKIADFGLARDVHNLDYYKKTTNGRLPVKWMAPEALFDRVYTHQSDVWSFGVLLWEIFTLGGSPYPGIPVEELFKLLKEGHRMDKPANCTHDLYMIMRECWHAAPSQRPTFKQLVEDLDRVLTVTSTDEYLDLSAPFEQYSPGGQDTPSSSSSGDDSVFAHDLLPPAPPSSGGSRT
T1 sequence (P11362 22-822): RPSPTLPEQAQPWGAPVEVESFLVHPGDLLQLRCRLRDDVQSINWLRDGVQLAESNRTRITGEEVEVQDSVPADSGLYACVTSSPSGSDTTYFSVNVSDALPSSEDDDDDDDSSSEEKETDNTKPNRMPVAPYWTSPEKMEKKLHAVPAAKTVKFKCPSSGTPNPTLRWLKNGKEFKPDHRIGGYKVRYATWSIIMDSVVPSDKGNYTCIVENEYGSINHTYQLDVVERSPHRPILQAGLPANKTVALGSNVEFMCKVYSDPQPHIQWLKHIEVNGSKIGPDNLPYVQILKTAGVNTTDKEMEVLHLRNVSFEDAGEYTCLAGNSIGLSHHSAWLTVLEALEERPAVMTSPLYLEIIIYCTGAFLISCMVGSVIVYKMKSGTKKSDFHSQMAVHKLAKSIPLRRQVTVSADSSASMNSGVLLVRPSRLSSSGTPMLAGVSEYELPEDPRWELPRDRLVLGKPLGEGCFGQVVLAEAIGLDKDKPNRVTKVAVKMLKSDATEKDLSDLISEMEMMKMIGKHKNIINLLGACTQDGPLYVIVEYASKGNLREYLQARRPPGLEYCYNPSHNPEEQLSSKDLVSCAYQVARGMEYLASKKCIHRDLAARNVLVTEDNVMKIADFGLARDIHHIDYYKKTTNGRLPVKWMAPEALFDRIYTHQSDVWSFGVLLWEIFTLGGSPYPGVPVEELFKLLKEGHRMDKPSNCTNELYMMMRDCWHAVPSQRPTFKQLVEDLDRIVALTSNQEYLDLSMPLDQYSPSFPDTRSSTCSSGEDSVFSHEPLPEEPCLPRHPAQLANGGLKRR

Kd (FGFR1) [nM]	Kd (FGFR3) [nM]	Kd (FGFR1; [1]) [nM]	Kd (FGFR3; [1]) [nM]	SMILES
1 to 50	1 to 50	–	–	COc1cc2[nH]nc(-c3cnc(N4CC[C@@](C)(N)C4)c(F)c3)c2cc1O[C@H](C)c1c(Cl)cncc1Cl [Example 315, (R)-1-(5-(5-((R)-1-(3,5-dichloropyridin-4-yl)ethoxy)-6-methoxy-1H-indazol-3-yl)-3-fluoropyridin-2-yl)-3-methylpyrrolidin-3-amine]
1 to 50	1 to 50	–	–	COCC1(N)CN(c2ncc(-c3n[nH]c4ccc(O[C@H](C)c5c(Cl)cncc5Cl)cc34)cc2F)C1 [Example 371, 1-[5-[5-[(1R)-1-(3,5-dichloro-4-pyridyl)ethoxy]-1H-indazol-3-yl]-3-fluoro-2-pyridyl]-3-(methoxy-methyl)aze-tidin-3-amine]
1 to 50	1 to 50	–	–	C[C@@H](Oc1ccc2[nH]nc(-c3cnc(N4CCC(N)(CS(C)(=O)=O)CC4)c(F)c3)c2c1)c1c(Cl)cncc1Cl [Example 375, (R)-1-(5-(5-(1-(3,5-dichloropyridin-4-yl)ethoxy)-1H-indazol-3-yl)-3-fluoropyridin-2-yl)-4-((methylsulfonyl)methyl)piperidin-4-amine]
1 to 50	1 to 50	–	–	COc1cc2[nH]nc(-c3ccc(N4CC(C)(N)C4)nc3)c2cc1O[C@H](C)c1c(Cl)cncc1Cl [Example 379, (R)-1-(5-(5-(1-(3,5-dichloropyridin-4-yl)ethoxy)-6-methoxy-1H-indazol-3-yl)pyridin-2-yl)-3-methylazetidin-3-amine]
1 to 50	1 to 50	–	–	COc1cc2[nH]nc(-c3ccc(N4CC[C@](C)(N)C4)nc3)c2cc1O[C@H](C)c1c(Cl)cncc1Cl [Example 381, (S)-1-(5-(5-((R)-1-(3,5-dichloropyridin-4-yl)ethoxy)-6-methoxy-1H-indazol-3-yl)pyridin-2-yl)-3-methyl-pyrrolidin-3-amine]
–	–	1 to 50	1 to 50	COc1cc2[nH]nc(-c3ccc(N4CCC(C)(N)CC4)nc3)c2cc1O[C@H](C)c1c(Cl)cncc1Cl [Example 382, (R)-1-(5-(5-(1-(3,5-dichloropyridin-4-yl)ethoxy)-6-methoxy-1H-indazol-3-yl)pyridin-2-yl)-4-methylpiperidin-4-amine]
–	–	1 to 50	1 to 50	COc1cc2[nH]nc(-c3cnc(N4CCC(C)(N)CC4)c(F)c3)c2cc1O[C@H](C)c1c(Cl)cncc1Cl [Example 383, (R)-1-(5-(5-(1-(3,5-dichloropyridin-4-yl)ethoxy)-6-methoxy-1H-indazol-3-yl)-3-fluoropyridin-2-yl)-4-methylpiperidin-4-amine]
–	–	1 to 50	1 to 50	C[C@@H](O)CC1(N)CN(c2ncc(-c3n[nH]c4ccc(O[C@H](C)c5c(Cl)cncc5Cl)cc34)cc2F)C1 [Example 385, (R)-1-(3-amino-1-(5-(5-((R)-1-(3,5-dichloropyridin-4-yl)ethoxy)-1H-indazol-3-yl)-3-fluoropyridin-2-yl)azetidin-3-yl)propan-2-ol]
–	–	1 to 50	1 to 50	COc1cc2[nH]nc(-c3cnc(N4CC[C@](C)(N)C4)c(F)c3)c2cc1O[C@H](C)c1c(Cl)cncc1Cl [Example 389, (S)-1-(5-(5-((R)-1-(3,5-dichloropyridin-4-yl)ethoxy)-6-methoxy-1H-indazol-3-yl)-3-fluoropyridin-2-yl)-3-methylpyrrolidin-3-amine]
–	–	1 to 50	1 to 50	COc1cc2[nH]nc(-c3ccc(N4CC(C)(N)C4)nn3)c2cc1O[C@H](C)c1c(Cl)cncc1Cl [Example 393, (R)-1-(6-(5-(1-(3,5-dichloropyridin-4-yl)ethoxy)-6-methoxy-1H-indazol-3-yl)pyridazin-3-yl)-3-methylazetidin-3-amine]
–	–	1 to 50	1 to 50	C[C@@H](Oc1ccc2[nH]nc(-c3cnc(N4CC[C@](C)(N)C4)c(F)c3)c2c1)c1c(Cl)cncc1Cl [Example 396, (S)-1-(5-(5-((R)-1-(3,5-dichloropyridin-4-yl)ethoxy)-1H-indazol-3-yl)-3-fluoropyridin-2-yl)-3-methylpyrrolidin-3-amine]

Further lines, the molecule ahead of its results:

SMILES	Kd (FGFR1) [nM]	Kd (FGFR3) [nM]	Kd (FGFR1; [1]) [nM]	Kd (FGFR3; [1]) [nM]
C[C@@H](Oc1ccc2[nH]nc(-c3cnc(N4CC(C)(NCC(=O)N(C)C)C4)c(F)c3)c2c1)c1c(Cl)cncc1Cl [Example 311, (R)-2-((1-(5-(5-(1-(3,5-dichloropyridin-4-yl)ethoxy)-1H-indazol-3-yl)-3-fluoropyridin-2-yl)-3-methylazetidin-3-yl)amino)-N,N-dimethylacetamide]	1 to 50	1 to 50	–	–
C[C@@H](Oc1ccc2[nH]nc(-c3ccc(N4CC(C)(NCC(F)F)C4)nn3)c2c1)c1c(Cl)cncc1Cl [Example 312, (R)-1-(6-(5-(1-(3,5-dichloropyridin-4-yl)ethoxy)-1H-indazol-3-yl)pyridazin-3-yl)-N-(2,2-difluoroethyl)-3-methylazetidin-3-amine]	1 to 50	1 to 50	–	–
C[C@@H](Oc1ccc2[nH]nc(-c3ccc(N4CC(C)(NCCC#N)C4)nn3)c2c1)c1c(Cl)cncc1Cl [Example 313, (R)-3-((1-(6-(5-(1-(3,5-dichloropyridin-4-yl)ethoxy)-1H-indazol-3-yl)pyridazin-3-yl)-3-methylazetidin-3-yl)amino)propane-nitrile]	1 to 50	1 to 50	–	–
C[C@@H](Oc1ccc2[nH]nc(-c3ccc(N4CC(N)(CCCO)C4)nn3)c2c1)c1c(Cl)cncc1Cl [Example 372, (R)-3-(3-amino-1-(6-(5-(1-(3,5-dichloropyridin-4-yl)ethoxy)-1H-indazol-3-yl)pyridazin-3-yl)azetidin-3-yl)propan-1-ol]	1 to 50	1 to 50	–	–
C[C@H](O)CC1(N)CN(c2ccc(-c3n[nH]c4ccc(O[C@H](C)c5c(Cl)cncc5Cl)cc34)nn2)C1 [Example 373, (S)-1-(3-amino-1-(6-(5-((R)-1-(3,5-dichloropyridin-4-yl)ethoxy)-1H-indazol-3-yl)pyridazin-3-yl)azetidin-3-yl)propan-2-ol]	1 to 50	1 to 50	–	–
C[C@@H](O)CC1(N)CN(c2ccc(-c3n[nH]c4ccc(O[C@H](C)c5c(Cl)cncc5Cl)cc34)nn2)C1 [Example 374, (R)-1-(3-amino-1-(6-(5-((R)-1-(3,5-dichloropyridin-4-yl)ethoxy)-1H-indazol-3-yl)pyridazin-3-yl)azetidin-3-yl)propan-2-ol]	1 to 50	1 to 50	–	–
C[C@@H](Oc1ccc2[nH]nc(-c3cnc(N4CC(N)(CC(F)F)C4)c(F)c3)c2c1)c1c(Cl)cncc1Cl [Example 394, (R)-1-(5-(5-(1-(3,5-dichloropyridin-4-yl)ethoxy)-1H-indazol-3-yl)-3-fluoropyridin-2-yl)-3-(2,2-difluoro-ethyl)azetidin-3-amine]	–	–	1 to 50	1 to 50
C[C@@H](Oc1ccc2[nH]nc(-c3cnc(N4CCC(N)(CCS(C)(=O)=O)CC4)c(F)c3)c2c1)c1c(Cl)cncc1Cl [Example 395, (R)-1-(5-(5-(1-(3,5-dichloropyridin-4-yl)ethoxy)-1H-indazol-3-yl)-3-fluoropyridin-2-yl)-4-(2-(methylsulfonyl)ethyl) piperidin-4-amine]	–	–	1 to 50	1 to 50
C[C@@H](Oc1ccc2[nH]nc(-c3ccc(N4CC(N)(CC(F)F)C4)nn3)c2c1)c1c(Cl)cncc1Cl [Example 397, (R)-1-(6-(5-(1-(3,5-dichloropyridin-4-yl)ethoxy)-1H-indazol-3-yl)pyridazin-3-yl)-3-(2,2-difluoro-ethyl)azetidin-3-amine]	–	–	1 to 50	1 to 50
